Where “and” joins values, the source holds several entries; their conditions need not be identical. Identical values can stand only once.
Experiments:
[1] = General observations for signs of illness; assay type: in vivo, mice (C57BL/6J); conditions: mice, 0.025-0.1 mg/g daily oral gavage two weeks
Procedure: (§1) This experiment was conducted under Flinders animal welfare approval number 751-10. A total of 38 wild-type (C57BL/6J) male mice aged 10 weeks were obtained from the Animal Resource Centre, Perth, Western Australia. Mice were divided randomly into 4 groups (ten mice in each treatment group and 8 mice in the sunflower oil only control group) and housed in 8 cages (four to five mice per cage). The mice were given water and food (rodent chow) ad libitum and maintained at the temperature of 22 ± 2 °C and humidity of 80% ± 10% with a 12 h light/dark cycle. Mice were weighed every five days and on the day of kill, and monitored daily for signs of illness, such as weight and hair loss, diarrhea, constipation, rectal bleeding, labored breathing, lethargy, eye and nose discharge.

HT29 cells = assay: MTT cell viability assay; assay type: cell-based, human; conditions: for reduction of cell viability: relative to DMSO control, 12 h
Procedure: All media and chemicals were purchased from Sigma Aldrich (Castle Hill, NSW, Australia) unless otherwise stated. HT29 human colorectal cancer cell line (passage no. 36-42) were cultured (37 °C and 5% CO2) in Dulbecco’s Modified Eagle’s Medium (DMEM) supplemented with 4500 mg/L L-glutamine, 10% FBS, 100 U/mL Penicillin/Streptomycin and 1% Non-essential Amino Acid (100×), until the cells reached 70% confluence. The cells were harvested from flasks by trypsinization (1× Trypsin-EDTA) and were seeded (20,000 cells/well) into clear 96-well plates (Costar®, Mt Martha, VIC, Australia) for measurement of cell viability and white (opaque) 96-well plates (Interpath, Heidelberg West, VIC, Australia) for determination of apoptosis and necrosis. HT29 cells were incubated for 48 h, then the media was removed and the cells were washed with PBS. […] 1% DMSO controls were also included on each plate. Staurosporine (5 µM) for apoptosis and lysis solution (5 μL/well, Promega, Alexandria, NSW, Australia) for necrosis were added to the white plates in triplicate, as positive controls. All cells were treated for 12 h. Morphological changes in the cells were observed on an Olympus CK2 inverted optical microscope (×400 magnification) 12 h after treatment. To measure cell viability, the MTT assay was applied, which measures the reduction of MTT tetrazolium salt to formazan, as previously described. To measure necrosis and apoptosis, CytoTox-ONE Homogeneous Membrane Integrity Assay reagent (Promega) and Caspase-Glo 3/7® assay (Promega) were applied respectively, according to our previous study. These assays were all repeated in triplicate on three separate occasions (n = 3).

[2] = tested on: caspase 3/7 activity in HT29 cells; assay: Caspase-Glo 3/7 assay; assay type: cell-based, human; conditions: 12 h
Procedure: All media and chemicals were purchased from Sigma Aldrich (Castle Hill, NSW, Australia) unless otherwise stated. HT29 human colorectal cancer cell line (passage no. 36-42) were cultured (37 °C and 5% CO2) in Dulbecco’s Modified Eagle’s Medium (DMEM) supplemented with 4500 mg/L L-glutamine, 10% FBS, 100 U/mL Penicillin/Streptomycin and 1% Non-essential Amino Acid (100×), until the cells reached 70% confluence. The cells were harvested from flasks by trypsinization (1× Trypsin-EDTA) and were seeded (20,000 cells/well) into clear 96-well plates (Costar®, Mt Martha, VIC, Australia) for measurement of cell viability and white (opaque) 96-well plates (Interpath, Heidelberg West, VIC, Australia) for determination of apoptosis and necrosis. HT29 cells were incubated for 48 h, then the media was removed and the cells were washed with PBS. To treat the cells, synthetic 6-bromoisatin was dissolved in 100% dimethylsulphoxide (DMSO) then diluted in media and added to the cells at a range of concentrations from 0.1 to 0.01 mg/mL, in triplicate (final DMSO concentration of 1%). 1% DMSO controls were also included on each plate. Staurosporine (5 µM) for apoptosis and lysis solution (5 μL/well, Promega, Alexandria, NSW, Australia) for necrosis were added to the white plates in triplicate, as positive controls. All cells were treated for 12 h. Morphological changes in the cells were observed on an Olympus CK2 inverted optical microscope (×400 magnification) 12 h after treatment. To measure cell viability, the MTT assay was applied, which measures the reduction of MTT tetrazolium salt to formazan, as previously described. To measure necrosis and apoptosis, CytoTox-ONE Homogeneous Membrane Integrity Assay reagent (Promega) and Caspase-Glo 3/7® assay (Promega) were applied respectively, according to our previous study. These assays were all repeated in triplicate on three separate occasions (n = 3).

distal colon crypts = assay: AARGC mouse model: crypt height; assay type: in vivo, mice (C57BL/6J); conditions: 0.025-0.1 mg/g daily oral gavage 14 days, 6 h post AOM
Procedure: as §1
To detect the early stage prevention of colon cancer, an established AARGC rodent model with injection of the carcinogen AOM was used. Synthetic 6-bromoisatin at 3 different dosages (0.025, 0.05 and 0.1 mg/g body weight) was administered to mice by daily oral gavage in 100 µL sunflower oil, containing 0.02% Vitamin E, for two weeks. […]
Distal colon segments were embedded in paraffin and sectioned at 4 µm (3–4 sections per mouse), then stained with hematoxylin, to evaluate apoptosis in epithelial cells of distal colon sections. […] The mean crypt column height was also determined.

O=C1Nc2cc(Br)ccc2C1=O [6-bromoisatin, 6-Bromoindole-2,3-dione]
diarrhea / stool consistency [1]: no diarrhea or change in stool consistency
signs of illness [1]: did not show any signs of illness
reduction of cell viability (HT29 cells; 0.01 mg/mL): no significant reduction
reduction of cell viability (HT29 cells; 0.025 mg/mL): 26%
reduction of cell viability (HT29 cells; 0.05 mg/mL): 53%
reduction of cell viability (HT29 cells; 1 mg/mL): 64%
IC50 (HT29 cells; Homo sapiens, HT-29, HT29 cells, MTT, 12 h treatment, 1% DMSO): 223 µM and 50 µg/mL
caspase 3/7 activity ([2]; 446 μM = 0.1 mg/mL, compared to DMSO control): minor but significant reduction
caspase 3/7 activity ([2]; concentrations <0.1 mg/mL): did not increase caspase 3/7 activity
colon crypt height (distal colon crypts): no significant effect

— article PMC3917258, “6-Bromoisatin Found in Muricid Mollusc Extracts Inhibits Colon Cancer Cell Proliferation and Induces Apoptosis, Preventing Early Stage Tumor Formation in a Colorectal Cancer Rodent Model” (Marine Drugs, 2013)
